According to patent publication US8211462B2, “Hot-melt TTS for administering rotigotine” (UCB Pharma GmbH, priority 2002, dated 2012):

Columns and labels:
[1] = Active-substance stability: rotigotine purity in the cement matrix by gradient HPLC; format: physicochemical; details: hot-melt processing
Method: The cement matrix was mixed with 0.1% methane sulfonic acid, agitated, centrifuged and measured. (b3) Analytics of the Active-Substance Stability: […] Column: LiChrosphere 100 CN, 125 mm×4.6 mm, 5 μm. Flow rate: 1.0 mL, column temperature: 40° C. UV detection (2 wavelengths: 272 and 220 nm).

[2] = Solubility of rotigotine in hydrophobic adhesives; format: physicochemical

Compound: CCCN(CCc1cccs1)[C@H]1CCc2c(O)cccc2C1 [rotigotine, (−)-5,6,7,8-tetrahydro-6-[propyl[2-(2-thienyl)ethyl-)amino]-1-naphthol]
- remains stable under short-term heating to temperatures up to [1]: at least 160 °C
- solubility of rotigotine in hydrophobic adhesives such as silicones [2]: soluble in trace amounts only
